Experimental data: patent US20250066388A1, “1,3,4,7-TETRAHYDRO-2H-PYRROLO[3',2':5,6]PYRIDO[2,3-B][1,4]OXAZEPINE BCL-2 INHIBITORS” (AbbVie Inc., priority 2022, published 2025)

Columns and labels:
[1] = tested on: Molt-4 cells; experiment: Cell viability counter screen (CellTiter-Glo) in Molt-4 cells; format: cell-based; conditions: 24 hours, 10% Human Serum
Summary of the method: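 3000 cells/well (0.1×10^6/mL) were treated with compound for 24 hours in 5% CO2. Viability read by CellTiter-Glo luminescence; Molt-4 (T-ALL) served as the counter screen to RS4;11 (ALL).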

[2] = target: Bcl-2 protein (Homo sapiens (Human), UniProt P10415); experiment: TR-FRET binding assay, Bcl-2; conditions: F-Bak peptide probe, GST-Bcl-2
Chain of Bcl-2 protein (P10415 other isoform, or with tags, fused parts or gaps): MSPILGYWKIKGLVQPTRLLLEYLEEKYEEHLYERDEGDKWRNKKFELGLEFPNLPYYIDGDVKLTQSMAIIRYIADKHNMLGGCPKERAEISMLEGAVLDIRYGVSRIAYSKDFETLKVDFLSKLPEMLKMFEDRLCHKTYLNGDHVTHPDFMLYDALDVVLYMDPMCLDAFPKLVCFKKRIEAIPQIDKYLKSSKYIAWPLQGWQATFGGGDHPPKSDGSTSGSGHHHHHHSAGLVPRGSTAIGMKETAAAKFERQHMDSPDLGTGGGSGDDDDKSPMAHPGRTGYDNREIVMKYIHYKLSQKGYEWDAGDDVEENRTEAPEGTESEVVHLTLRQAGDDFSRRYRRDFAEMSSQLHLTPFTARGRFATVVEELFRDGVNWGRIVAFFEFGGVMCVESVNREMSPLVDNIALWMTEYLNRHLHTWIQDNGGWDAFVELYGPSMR

[3] = tested on: RS4;11 cells; experiment: Cell viability assay (CellTiter-Glo) in RS4;11 cells; format: cell-based; conditions: 10% Human Serum
Protocol: The acute lymphoblastic leukemia (ALL) human cell line RS4;11 (ATCC, Manassas VA) was used as the primary human cell line to assess the cellular activity of compound of the present Examples in vitro and their efficacy in vivo. […] The acute lymphoblastic leukemia cell line Molt-4, which is derived from immature T-lymphoid cells (T-ALL), was used as a counter screen assay.
3000 Cells (0.1×10^6/mL) were seeded in each well of 384-well plate and were treated for 24 hours in a humidified chamber with 5% CO2. Cell viability was determined by CellTiter-Glo as described by the manufacturer's instructions (Promega Corporation, Madison, WI, USA).

[4] = target: Bcl-xL protein (Homo sapiens (Human), UniProt Q07817); experiment: TR-FRET binding assay, Bcl-xL; conditions: F-Bak peptide probe
Chain of Bcl-xL protein (Q07817 other isoform, or with tags, fused parts or gaps): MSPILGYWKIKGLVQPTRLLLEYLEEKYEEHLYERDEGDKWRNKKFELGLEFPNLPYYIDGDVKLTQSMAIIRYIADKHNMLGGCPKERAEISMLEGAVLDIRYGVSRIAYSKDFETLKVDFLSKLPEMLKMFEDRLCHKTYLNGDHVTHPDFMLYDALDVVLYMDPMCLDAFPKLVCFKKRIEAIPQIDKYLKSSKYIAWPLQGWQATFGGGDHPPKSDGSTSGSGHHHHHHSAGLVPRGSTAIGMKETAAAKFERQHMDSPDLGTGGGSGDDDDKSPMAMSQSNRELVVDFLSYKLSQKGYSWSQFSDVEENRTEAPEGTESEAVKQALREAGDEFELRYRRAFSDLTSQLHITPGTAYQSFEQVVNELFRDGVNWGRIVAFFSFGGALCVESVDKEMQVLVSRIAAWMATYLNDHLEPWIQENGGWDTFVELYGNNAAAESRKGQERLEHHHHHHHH

Q: For `C[C@@H]1CO[C@@H](COc2ccc(S(=O)(=O)NC(=O)c3ccc(N4CCN5CC6=C(c7ccc(Cl)cc7)CC(C)(C)C[C@H]6OCCCOC[C@@H]5C4)cc3N3CCCOc4nc5[nH]ccc5cc43)cc2[N+](=O)[O-])CO1` [Example 20, 4-((4aS,10aR)-14-(4-chlorophenyl)-12,12-dimethyl-1,2,4a,5,8,9,10a,11,13,15-decahydro-7H,12H-benzo[f]pyrazino[2,1-c][1,8]dioxa[4]azacycloundecin-3(4H)-yl)-2-(3,4-dihydro-2H-pyrrolo[3′,2′:5,6]pyrido[2,3-b][1,4]oxazepin-1(7H)-yl)-N-((4-(((2R,5R)-5-methyl-1,4-dioxan-2-yl)methoxy)-3-nitrophenyl)sulfonyl)benzamide], which EC50 [1] is on record?
A: Its EC50 is 1610 nM.

Q: What about the Ki [2] of the same compound?
A: Its Ki is 0.977 nM.

Q: What about the EC50 ([3]; 24 hours) of the same compound?
A: The EC50 was 5.21 nM.

Q: And the Ki [4]?
A: Its Ki is 17.3 nM.

Q: For `CO[C@H]1C[C@@H](CNc2ccc(S(=O)(=O)NC(=O)c3ccc(N4CCN5CC6=C(c7ccc(Cl)cc7)CC(C)(C)C[C@H]6OCCCOC[C@@H]5C4)cc3N3CCCOc4nc5[nH]ccc5cc43)cc2[N+](=O)[O-])C1` [Example 24, 4-((4aS,10aR)-14-(4-chlorophenyl)-12,12-dimethyl-1,2,4a,5,8,9,10a,11,13,15-decahydro-7H,12H-benzo[f]pyrazino[2,1-c][1,8]dioxa[4]azacycloundecin-3(4H)-yl)-2-(3,4-dihydro-2H-pyrrolo[3′,2′:5,6]pyrido[2,3-b][1,4]oxazepin-1(7H)-yl)-N-((4-((((1s,3s)-3-methoxycyclobutyl)methyl)amino)-3-nitrophenyl)sulfonyl)benzamide], which EC50 [1] is on record?
A: The EC50 was > 10000 nM.

Q: What about the Ki [2] of the same compound?
A: The Ki was 0.248 nM.

Q: And the EC50 ([3]; 24 hours)?
A: The EC50 was 4.9 nM.

Q: And the Ki [4]?
A: Its Ki is 10.3 nM.

Q: Which results are given for `CC1(C)CC(c2ccc(Cl)cc2)=C2CN3CCN(c4ccc(C(=O)NS(=O)(=O)c5ccc(NC[C@H]6CC[C@@](C)(O)CC6)c([N+](=O)[O-])c5)c(N5CCCOc6nc7[nH]ccc7cc65)c4)C[C@H]3COCCCO[C@@H]2C1` [Example 36, 4-((4aS,10aR)-14-(4-chlorophenyl)-12,12-dimethyl-1,2,4a,5,8,9,10a,11,13,15-decahydro-7H,12H-benzo[f]pyrazino[2,1-c][1,8]dioxa[4]azacycloundecin-3(4H)-yl)-2-(3,4-dihydro-2H-pyrrolo[3′,2′:5,6]pyrido[2,3-b][1,4]oxazepin-1(7H)-yl)-N-((4-((((1s,4s)-4-hydroxy-4-methylcyclohexyl)methyl)amino)-3-nitrophenyl)sulfonyl)benzamide]?
A: EC50 [1]: 117 nM; Ki [2]: 0.0607 nM; EC50 ([3]; 24 hours): 1.47 nM; Ki [4]: 11.1 nM

Q: What does the source list for `CC1(C)CC(c2ccc(Cl)cc2)=C2CN3CCN(c4ccc(C(=O)NS(=O)(=O)c5ccc(NC[C@H]6CC[C@H](N7CCOCC7)CC6)c([N+](=O)[O-])c5)c(N5CCCOc6nc7[nH]ccc7cc65)c4)C[C@H]3COCCCO[C@@H]2C1` [Example 28, 4-((4aS,10aR)-14-(4-chlorophenyl)-12,12-dimethyl-1,2,4a,5,8,9,10a,11,13,15-decahydro-7H,12H-benzo[f]pyrazino[2,1-c][1,8]dioxa[4]azacycloundecin-3(4H)-yl)-2-(3,4-dihydro-2H-pyrrolo[3′,2′:5,6]pyrido[2,3-b][1,4]oxazepin-1(7H)-yl)-N-((4-((((1r,4r)-4-morpholinocyclohexyl)methyl)amino)-3-nitrophenyl)sulfonyl)benzamide]?
A: EC50 [1]: 274 nM; Ki [2]: 0.833 nM; EC50 ([3]; 24 hours): 0.862 nM; Ki [4]: 4.71 nM

Q: With `CC1(C)CC(c2ccc(Cl)cc2)=C2CN3CCN(c4ccc(C(=O)NS(=O)(=O)c5ccc(NC[C@H]6CC[C@H](O)CO6)c([N+](=O)[O-])c5)c(N5CCCOc6nc7[nH]ccc7cc65)c4)C[C@H]3COCCCO[C@@H]2C1` [Example 12, 4-((4aS,10aR)-14-(4-chlorophenyl)-12,12-dimethyl-1,2,4a,5,8,9,10a,11,13,15-decahydro-7H,12H-benzo[f]pyrazino[2,1-c][1,8]dioxa[4]azacycloundecin-3(4H)-yl)-2-(3,4-dihydro-2H-pyrrolo[3′,2′:5,6]pyrido[2,3-b][1,4]oxazepin-1(7H)-yl)-N-((4-((((2R,5S)-5-hydroxytetrahydro-2H-pyran-2-yl)methyl)amino)-3-nitrophenyl)sulfonyl)benzamide] as the compound, how does the EC50 [1] read?
A: Its EC50 is 823 nM.

Q: And the Ki [2]?
A: Its Ki is 0.888 nM.

Q: What about the EC50 ([3]; Homo sapiens, RS4-11, 24 h) of the same compound?
A: The EC50 was 0.966 nM.

Q: What about the Ki [4] of the same compound?
A: The Ki was 6.13 nM.

Q: Which EC50 [1] does the source give for `CC1(C)CC(c2ccc(Cl)cc2)=C2CN3CCN(c4ccc(C(=O)NS(=O)(=O)c5ccc(NCC6(O)COC6)c([N+](=O)[O-])c5)c(N5CCCOc6nc7[nH]ccc7cc65)c4)C[C@H]3COCCCO[C@@H]2C1` [Example 17, 4-((4aS,10aR)-14-(4-chlorophenyl)-12,12-dimethyl-1,2,4a,5,8,9,10a,11,13,15-decahydro-7H,12H-benzo[f]pyrazino[2,1-c][1,8]dioxa[4]azacycloundecin-3(4H)-yl)-2-(3,4-dihydro-2H-pyrrolo[3′,2′:5,6]pyrido[2,3-b][1,4]oxazepin-1(7H)-yl)-N-((4-(((3-hydroxyoxetan-3-yl)methyl)amino)-3-nitrophenyl)sulfonyl)benzamide] here?
A: The EC50 was 723 nM.

Q: And the Ki [2]?
A: The Ki was 0.761 nM.

Q: And the EC50 ([3]; 24 hours)?
A: Its EC50 is 2.82 nM.

Q: And the Ki [4]?
A: Its Ki is 6.31 nM.

Q: With `CC1(C)CC(c2ccc(Cl)cc2)=C2CN3CCN(c4ccc(C(=O)NS(=O)(=O)c5ccc(NC[C@H]6CC[C@H](N7CCOCC7)CO6)c([N+](=O)[O-])c5)c(N5CCCOc6nc7[nH]ccc7cc65)c4)C[C@H]3COCCCO[C@@H]2C1` [Example 37, 4-((4aS,10aR)-14-(4-chlorophenyl)-12,12-dimethyl-1,2,4a,5,8,9,10a,11,13,15-decahydro-7H,12H-benzo[f]pyrazino[2,1-c][1,8]dioxa[4]azacycloundecin-3(4H)-yl)-2-(3,4-dihydro-2H-pyrrolo[3′,2′:5,6]pyrido[2,3-b][1,4]oxazepin-1(7H)-yl)-N-((4-((((2R,5S)-5-morpholinotetrahydro-2H-pyran-2-yl)methyl)amino)-3-nitrophenyl)sulfonyl)benzamide] as the compound, how does the EC50 [1] read?
A: Its EC50 is 1450 nM.

Q: What about the Ki [2] of the same compound?
A: Its Ki is 0.109 nM.

Q: And the EC50 ([3]; 24 hours)?
A: The EC50 was 1.05 nM.

Q: What about the Ki [4] of the same compound?
A: Its Ki is 4.61 nM.

Q: Which EC50 [1] does the source give for `CO[C@H]1C[C@H](Nc2ccc(S(=O)(=O)NC(=O)c3ccc(N4CCN5CC6=C(c7ccc(Cl)cc7)CC(C)(C)C[C@H]6OCCCOC[C@@H]5C4)cc3N3CCCOc4nc5[nH]ccc5cc43)cc2[N+](=O)[O-])C1` [Example 30, 4-((4aS,10aR)-14-(4-chlorophenyl)-12,12-dimethyl-1,2,4a,5,8,9,10a,11,13,15-decahydro-7H,12H-benzo[f]pyrazino[2,1-c][1,8]dioxa[4]azacycloundecin-3(4H)-yl)-2-(3,4-dihydro-2H-pyrrolo[3′,2′:5,6]pyrido[2,3-b][1,4]oxazepin-1(7H)-yl)-N-((4-(((1r,3r)-3-methoxycyclobutyl)amino)-3-nitrophenyl)sulfonyl)benzamide] here?
A: Its EC50 is > 10000 nM.

Q: What about the Ki [2] of the same compound?
A: The Ki was 2.58 nM.

Q: What about the EC50 ([3]; 24 hours) of the same compound?
A: Its EC50 is 4.1 nM.

Q: What about the Ki [4] of the same compound?
A: The Ki was 39 nM.

Q: With `C[C@@H]1CO[C@@H](CNc2ccc(S(=O)(=O)NC(=O)c3ccc(N4CCN5CC6=C(c7ccc(Cl)cc7)CC(C)(C)C[C@H]6OCCCOC[C@@H]5C4)cc3N3CCCOc4nc5[nH]ccc5cc43)cc2[N+](=O)[O-])CO1` [Example 6, 4-((4aS,10aR)-14-(4-chlorophenyl)-12,12-dimethyl-1,2,4a,5,8,9,10a,11,13,15-decahydro-7H,12H-benzo[f]pyrazino[2,1-c][1,8]dioxa[4]azacycloundecin-3(4H)-yl)-2-(3,4-dihydro-2H-pyrrolo[3′,2′:5,6]pyrido[2,3-b][1,4]oxazepin-1(7H)-yl)-N-((4-((((2S,5R)-5-methyl-1,4-dioxan-2-yl)methyl)amino)-3-nitrophenyl)sulfonyl)benzamide] as the compound, how does the EC50 [1] read?
A: Its EC50 is 1910 nM.

Q: And the Ki [2]?
A: Its Ki is 0.438 nM.

Q: What about the EC50 ([3]; 24 hours) of the same compound?
A: Its EC50 is 1.55 nM.

Q: What about the Ki [4] of the same compound?
A: Its Ki is 5.62 nM.
